Laboratory results taken from the NIST ThermoML archive (doi:10.1021/acs.jced.9b00057).

Test: wn = mass fraction of the nth substance listed
Conditions: 298 K, 100 kPa, Liquid; for mass density: Vibrating tube method

CCCC(=O)O [butanoic acid] + O
Conditions	mass density [kg/m3]
w1 = 6.86e-05	997.07
w1 = 0.000154	997.07
w1 = 0.000352	997.09
w1 = 0.000628	997.08
w1 = 0.000783	997.12
w1 = 0.00206	997.2
w1 = 0.0023	997.22
w1 = 0.00429	997.33
w1 = 0.00704	997.57
w1 = 0.00763	997.62
w1 = 0.0151	998.25
w1 = 0.0157	998.3
w1 = 0.0285	999.62
w1 = 0.0453	1001.89
w1 = 0.0508	1002.79
w1 = 0.0589	1004.25
w1 = 0.073	1000.5
w1 = 0.087	1001.01
w1 = 0.0974	1014.17

CCCCCCCCCC(=O)[O-].CCCCCCCCCCCCCC[P+](CCCCCC)(CCCCCC)CCCCCC [trihexyltetradecylphosphonium decanoate] + O
Conditions	viscosity [mPa·s]
Cone and plate viscometry, w2 = 0.162	96.1

Conditions	mass density [kg/m3]
w2 = 0.162	900
